Patent publication US20260297060A1, “COMPOUNDS FOR THE DEGRADATION OF MUTANT BRAF” (C4 THERAPEUTICS, INC., priority 2023, published 2026)

Tests used:
[1] = tested on: A375 tumors; test: In vivo efficacy, A375 xenograft tumor volume (Example 8); set-up: species or system human A375 melanoma xenograft in female BALB/c nude mice; settings: oral, FIG. 22
Method: FIG. 22 is a line graph showing in vivo efficacy of encorafenib, Compound 8, Compound 26, and Compound 38 in the treatment of female BALB/c nude mice bearing A375 tumors. Mice were treated with vehicle (10 μL/g, p.o., BID), encorafenib (35 mg/kg, p.o., QD), Compound 8 (10 mg/kg, p.o., BID), Compound 26 (10 mg/kg, p.o., BID), or Compound 38 (10 mg/kg, p.o., BID) by oral gavage (p.o.). Data points represent group mean change in tumor volume. Error bars represent standard error of the mean (SEM). The x-axis is the time measured in days and the y-axis is A375 tumor volume measured in mm^3. The experiment was conducted as described in Example 8.

[2] = Human dose projections for Compound 26 (allometry, PBPK model), Example 15
Excerpt: The first-in-human dose projections for Compound 26 were made using prediction models. These models utilized experimentally determined physicochemical and ADME parameters relevant to Compound 26. The in vivo plasma clearance (Cl) and volume of distribution (Vdss) values obtained across different preclinical species (mouse, rat, dog and monkey) were scaled to predict human values using allometry. […] In addition, the human efficacious AUC (area under the concentration curve) was derived from a PKPD efficacy study in a tumor bearing mouse model. […] With these inputs a pharmacokinetic model (PBPK) was developed to project first in human BID dose. The oral bioavailability data for Compound 26 from preclinical species, mouse, rat, dog and monkey was simulated in the PBPK model for that species, to build confidence in the human PBPK model.

[3] = molecular target: T1, human bile salt export pump (BSEP) efflux transporter (Homo sapiens, UniProt O95342); test: BSEP Vesicular Transport, one concentration inhibition assay; type: biochemical; settings: human BSEP (HEK293) vesicles, taurocholate 0.2 μM, 4 mM Mg-ATP, 2 replicates
T1 construct: purchased SOLVO Biotechnology Charles River Laboratories, Szeged, Hungary; host or cells: HEK293 (inside out membrane vesicles)
T1 sequence (O95342 whole entry): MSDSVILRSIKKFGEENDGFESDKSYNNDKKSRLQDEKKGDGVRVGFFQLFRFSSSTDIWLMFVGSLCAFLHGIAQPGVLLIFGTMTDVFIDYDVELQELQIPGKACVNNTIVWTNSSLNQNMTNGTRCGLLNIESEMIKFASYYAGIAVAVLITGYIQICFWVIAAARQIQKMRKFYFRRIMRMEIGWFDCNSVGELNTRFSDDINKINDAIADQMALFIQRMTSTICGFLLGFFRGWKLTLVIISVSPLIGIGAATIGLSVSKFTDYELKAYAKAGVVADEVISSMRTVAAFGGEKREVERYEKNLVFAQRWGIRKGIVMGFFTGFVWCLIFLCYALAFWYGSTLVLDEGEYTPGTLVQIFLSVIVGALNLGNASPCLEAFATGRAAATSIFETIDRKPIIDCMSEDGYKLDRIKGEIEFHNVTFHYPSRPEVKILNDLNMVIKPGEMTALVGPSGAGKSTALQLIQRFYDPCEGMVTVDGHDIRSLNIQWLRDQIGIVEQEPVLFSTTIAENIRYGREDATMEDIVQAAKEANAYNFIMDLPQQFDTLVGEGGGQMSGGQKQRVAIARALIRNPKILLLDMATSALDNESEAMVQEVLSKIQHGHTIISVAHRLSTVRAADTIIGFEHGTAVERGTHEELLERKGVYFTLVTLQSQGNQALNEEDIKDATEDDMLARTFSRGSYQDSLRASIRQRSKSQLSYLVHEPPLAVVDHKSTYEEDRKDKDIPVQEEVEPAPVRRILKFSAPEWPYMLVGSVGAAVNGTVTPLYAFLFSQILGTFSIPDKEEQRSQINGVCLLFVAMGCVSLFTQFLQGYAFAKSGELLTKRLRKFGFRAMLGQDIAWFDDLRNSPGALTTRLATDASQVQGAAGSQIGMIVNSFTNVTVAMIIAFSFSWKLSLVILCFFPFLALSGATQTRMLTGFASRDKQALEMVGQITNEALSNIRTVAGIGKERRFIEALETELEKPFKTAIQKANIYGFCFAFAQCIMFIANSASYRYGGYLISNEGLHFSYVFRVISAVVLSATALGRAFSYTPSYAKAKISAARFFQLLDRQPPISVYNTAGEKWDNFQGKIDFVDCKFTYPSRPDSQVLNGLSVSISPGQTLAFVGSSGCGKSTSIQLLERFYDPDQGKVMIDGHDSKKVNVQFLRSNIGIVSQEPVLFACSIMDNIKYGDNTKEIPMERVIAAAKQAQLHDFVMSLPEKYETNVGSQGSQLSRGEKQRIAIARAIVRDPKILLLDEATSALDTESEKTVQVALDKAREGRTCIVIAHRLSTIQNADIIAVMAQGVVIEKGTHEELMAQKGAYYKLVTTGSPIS
Method: The vesicular transport (VT) assays were performed using inside out membrane vesicles derived from HEK293 cells expressing the specified human bile salt export pump (BSEP) efflux transporter. The membrane vesicles were procured from SOLVO Biotechnology Charles River Laboratories, Szeged, Hungary.
The principle of the assay relies on measuring the accumulation of substrate into inside out vesicles containing the efflux transporter. By utilizing inside out vesicles, the ATP-dependent transport of substrate is directed into the vesicular lumen, where low permeability compounds are then essentially trapped.
For the 1 concentration inhibition assay, each compound was tested in the presence of ATP (active transport) in 2 replicates.
The solvent control (DMSO) was tested in the presence of ATP (active transport) and in the presence of AMP (background) in 8 replicates. […]
The samples were then be transferred to a filter plate and washed with 200 μL cold washing mix5-times to remove any free compounds or taurocholate probe substrate. The amount of taurocholate probe substrate inside the filtered vesicles were determined by liquid scintillation counting. […] The amount of taurocholate probe substrate inside the filtered vesicles were determined by liquid scintillation counting.

SMILES: CCN(C)S(=O)(=O)Nc1ccc(F)c(Oc2ccc3ncn(C4CC5(CCN(C6CCC(c7cc8c(cc7F)c(N7CCC(=O)NC7=O)nn8C)CC6)CC5)C4)c(=O)c3c2)c1C#N (single isomer, unassigned) [Compound 8, 6-[2-cyano-3-[[ethyl(methyl)sulfamoyl]amino]-6-fluoro-phenoxy]-3-[7-[4-[3-(2,4-dioxohexahydropyrimidin-1-yl)-5-fluoro-1-methyl-indazol-6-yl]cyclohexyl]-7-azaspiro[3.5]nonan-2-yl]-4-oxo-quinazoline]
- tumor regressions in the xenograft model ([1]; 10 mg/kg BID, A375 xenografts): profound tumor regressions
- antitumor response compared with comparators dabrafenib or encorafenib ([1]; A375 human melanoma xenografts): more robust antitumor response

SMILES: CCN(C)S(=O)(=O)Nc1ccc(F)c(Oc2ccc3ncn([C@H]4COC5(CCN(C6CC7(C6)CN(c6cc8c(cc6F)c(N6CCC(=O)NC6=O)nn8C)C7)CC5)C4)c(=O)c3c2)c1C#N [Compound 26, (3R)-3-[6-[2-cyano-3-[[ethyl(methyl)sulfamoyl]amino]-6-fluoro-phenoxy]-4-oxo-quinazolin-3-yl]-8-[2-[3-(2,4-dioxohexahydropyrimidin-1-yl)-5-fluoro-1-methyl-indazol-6-yl]-2-azaspiro[3.3]heptan-6-yl]-1-oxa-8-azaspiro[4.5]decane]
- Human Vdss ([2]; Table 86): 0.50 L/kg
- Human CL (PPB corrected plasma clearance) ([2]; allometry from mouse, rat, dog and monkey): 0.88 mL/min/kg

SMILES: CCN(C)S(=O)(=O)Nc1ccc(F)c(Oc2ccc3ncn([C@H]4COC5(CCN(C6CC(c7cc8c(cc7F)c(N7CCC(=O)NC7=O)nn8C)C6)CC5)C4)c(=O)c3c2)c1C#N (single isomer, unassigned) [Compound 70]
- BSEP Inhibition SD Inhibition % [3]: 80%
